Measurements taken from patent US7118895B2, “Process for producing aglycon by using diglycosidase and flavor-improved food containing the aglycon and converting agent to be used in the process” (Amano Enzyme Inc., priority 2000, dated 2006).

System: Crude diglycosidase
Assay: Examination of pH in the conversion into isoflavone aglycons by diglycosidase using soybean materials
Type: biochemical, Penicillium multicolor IAM7153
Settings: for Decomposition efficiency of glycitin family in roasted soy flour / Decomposition efficiency of glycitin family in soymilk: 55° C.
Procedure: A substrate solution of 450 μL was prepared by suspending 50 mg of each soybean material (roasted soy flour (manufactured by Fuji Shokuryo K.K.), soymilk (manufactured by Gitoh Shokuhin K.K.), defatted soybean (manufactured by Fuji Seiyu K.K.), concentrated soybean protein (manufactured by Fuji Seiyu K.K.)), and adjusting the pH to 2 to 11 with hydrochloric acid or sodium hydroxide. Each enzyme solution of pH 2–11 wherein diglycosidase activity of crude diglycosidase was adjusted to 1.88 AU/mL was added thereto in an amount of 50 μL and the whole was reacted at 55° C. at the total volume of 500 μL. To the reaction mixture was added 700 μL of ethanol after 0, 1, 3, and 6 hours of the reaction. After stirring and ultrasonication, the mixture was subjected to centrifugal separation at 15,000 rpm and 4° C. for 10 minutes. The supernatant was filtered through a filter and the existence of isoflavone glycosides and aglycon isoflavones contained in the reaction mixture was detected by HLPC (Tables 15 to 26).

[1] = pH6.6, heat treatment of enzyme: no, reaction time 0 h
[2] = pH6.6, heat treatment of enzyme: no, reaction time 1 h
[3] = pH6.6, heat treatment of enzyme: no, reaction time 3 h
[4] = pH6.6, heat treatment of enzyme: no, reaction time 6 h
[5] = pH6.6, heat treatment of enzyme: yes, reaction time 6 h

COc1cc2c(=O)c(-c3ccc(O)cc3)coc2cc1O[C@@H]1O[C@H](COC(C)=O)[C@@H](O)[C@H](O)[C@H]1O [acetylglycitin, 6″-O-acetylglycitin]
Decomposition efficiency of glycitin family in concentrated soybean protein (pH1.6, heat treatment of enzyme: no, reaction time 0 h): 35.9%
Decomposition efficiency of glycitin family in concentrated soybean protein (pH1.6, heat treatment of enzyme: no, reaction time 1 h): 35.1%
Decomposition efficiency of glycitin family in concentrated soybean protein (pH1.6, heat treatment of enzyme: no, reaction time 3 h): 33.5%
Decomposition efficiency of glycitin family in concentrated soybean protein (pH1.6, heat treatment of enzyme: no, reaction time 6 h): 31.8%
Decomposition efficiency of glycitin family in concentrated soybean protein (pH1.6, heat treatment of enzyme: yes, reaction time 6 h): 30.9%
Decomposition efficiency of glycitin family in roasted soy flour (pH2, heat treatment of enzyme no, reaction time 0 h): 35.3
Decomposition efficiency of glycitin family in roasted soy flour (pH2, heat treatment of enzyme no, reaction time 1 h): 34.0
Decomposition efficiency of glycitin family in roasted soy flour (pH2, heat treatment of enzyme no, reaction time 3 h): 34.2
Decomposition efficiency of glycitin family in roasted soy flour (pH2, heat treatment of enzyme no, reaction time 6 h): 35.5
Decomposition efficiency of glycitin family in roasted soy flour (pH2, heat treatment of enzyme yes, reaction time 6 h): 35.2
Decomposition efficiency of glycitin family in soymilk (pH2.3, heat treatment of enzyme no, reaction time 0 h): not detected
Decomposition efficiency of glycitin family in soymilk (pH2.3, heat treatment of enzyme no, reaction time 1 h): not detected
Decomposition efficiency of glycitin family in soymilk (pH2.3, heat treatment of enzyme no, reaction time 3 h): not detected
Decomposition efficiency of glycitin family in soymilk (pH2.3, heat treatment of enzyme no, reaction time 6 h): not detected
Decomposition efficiency of glycitin family in soymilk (pH2.3, heat treatment of enzyme yes, reaction time 6 h): not detected
Decomposition efficiency of glycitin family in defatted soybean (pH2.6, heat treatment of enzyme: no, reaction time 0 h): not detected
Decomposition efficiency of glycitin family in defatted soybean (pH2.6, heat treatment of enzyme: no, reaction time 1 h): not detected
Decomposition efficiency of glycitin family in defatted soybean (pH2.6, heat treatment of enzyme: no, reaction time 3 h): not detected
Decomposition efficiency of glycitin family in defatted soybean (pH2.6, heat treatment of enzyme: no, reaction time 6 h): not detected
Decomposition efficiency of glycitin family in defatted soybean (pH2.6, heat treatment of enzyme: yes, reaction time 6 h): not detected
Decomposition efficiency of glycitin family in concentrated soybean protein (pH2.7, heat treatment of enzyme: no, reaction time 0 h): 35.9%
Decomposition efficiency of glycitin family in concentrated soybean protein (pH2.7, heat treatment of enzyme: no, reaction time 1 h): 36.6%
Decomposition efficiency of glycitin family in concentrated soybean protein (pH2.7, heat treatment of enzyme: no, reaction time 3 h): 36.5%
Decomposition efficiency of glycitin family in concentrated soybean protein (pH2.7, heat treatment of enzyme: no, reaction time 6 h): 36.6%
Decomposition efficiency of glycitin family in concentrated soybean protein (pH2.7, heat treatment of enzyme: yes, reaction time 6 h): 35.4%
Decomposition efficiency of glycitin family in roasted soy flour (pH3, heat treatment of enzyme no, reaction time 0 h): 35.3
Decomposition efficiency of glycitin family in roasted soy flour (pH3, heat treatment of enzyme no, reaction time 1 h): 38.7
Decomposition efficiency of glycitin family in roasted soy flour (pH3, heat treatment of enzyme no, reaction time 3 h): 30.8
Decomposition efficiency of glycitin family in roasted soy flour (pH3, heat treatment of enzyme no, reaction time 6 h): 31.7
Decomposition efficiency of glycitin family in roasted soy flour (pH3, heat treatment of enzyme yes, reaction time 6 h): 35.6
Decomposition efficiency of glycitin family in defatted soybean (pH3.4, heat treatment of enzyme: no, reaction time 0 h): not detected
Decomposition efficiency of glycitin family in defatted soybean (pH3.4, heat treatment of enzyme: no, reaction time 1 h): not detected
Decomposition efficiency of glycitin family in defatted soybean (pH3.4, heat treatment of enzyme: no, reaction time 3 h): not detected
Decomposition efficiency of glycitin family in defatted soybean (pH3.4, heat treatment of enzyme: no, reaction time 6 h): not detected
Decomposition efficiency of glycitin family in defatted soybean (pH3.4, heat treatment of enzyme: yes, reaction time 6 h): not detected
Decomposition efficiency of glycitin family in soymilk (pH3.5, heat treatment of enzyme no, reaction time 0 h): not detected
Decomposition efficiency of glycitin family in soymilk (pH3.5, heat treatment of enzyme no, reaction time 1 h): not detected
Decomposition efficiency of glycitin family in soymilk (pH3.5, heat treatment of enzyme no, reaction time 3 h): not detected
Decomposition efficiency of glycitin family in soymilk (pH3.5, heat treatment of enzyme no, reaction time 6 h): not detected
Decomposition efficiency of glycitin family in soymilk (pH3.5, heat treatment of enzyme yes, reaction time 6 h): not detected
Decomposition efficiency of glycitin family in concentrated soybean protein (pH3.7, heat treatment of enzyme: no, reaction time 0 h): 36.1%
Decomposition efficiency of glycitin family in concentrated soybean protein (pH3.7, heat treatment of enzyme: no, reaction time 1 h): 32.9%
Decomposition efficiency of glycitin family in concentrated soybean protein (pH3.7, heat treatment of enzyme: no, reaction time 3 h): 26.1%
Decomposition efficiency of glycitin family in concentrated soybean protein (pH3.7, heat treatment of enzyme: no, reaction time 6 h): 22.1%
Decomposition efficiency of glycitin family in concentrated soybean protein (pH3.7, heat treatment of enzyme: yes, reaction time 6 h): 35.9%
Decomposition efficiency of glycitin family in roasted soy flour (pH4, heat treatment of enzyme no, reaction time 0 h): 34.8
Decomposition efficiency of glycitin family in roasted soy flour (pH4, heat treatment of enzyme no, reaction time 1 h): 18.8
Decomposition efficiency of glycitin family in roasted soy flour (pH4, heat treatment of enzyme no, reaction time 3 h): 8.2
Decomposition efficiency of glycitin family in roasted soy flour (pH4, heat treatment of enzyme no, reaction time 6 h): not detected
Decomposition efficiency of glycitin family in roasted soy flour (pH4, heat treatment of enzyme yes, reaction time 6 h): 35.9
Decomposition efficiency of glycitin family in soymilk (pH4.8, heat treatment of enzyme no, reaction time 0 h): not detected
Decomposition efficiency of glycitin family in soymilk (pH4.8, heat treatment of enzyme no, reaction time 1 h): not detected
Decomposition efficiency of glycitin family in soymilk (pH4.8, heat treatment of enzyme no, reaction time 3 h): not detected
Decomposition efficiency of glycitin family in soymilk (pH4.8, heat treatment of enzyme no, reaction time 6 h): not detected
Decomposition efficiency of glycitin family in soymilk (pH4.8, heat treatment of enzyme yes, reaction time 6 h): not detected
Decomposition efficiency of glycitin family in defatted soybean (pH4.8, heat treatment of enzyme: no, reaction time 0 h): not detected
Decomposition efficiency of glycitin family in defatted soybean (pH4.8, heat treatment of enzyme: no, reaction time 1 h): not detected
Decomposition efficiency of glycitin family in defatted soybean (pH4.8, heat treatment of enzyme: no, reaction time 3 h): not detected
Decomposition efficiency of glycitin family in defatted soybean (pH4.8, heat treatment of enzyme: no, reaction time 6 h): not detected
Decomposition efficiency of glycitin family in defatted soybean (pH4.8, heat treatment of enzyme: yes, reaction time 6 h): not detected
Decomposition efficiency of glycitin family in roasted soy flour (pH5, heat treatment of enzyme no, reaction time 0 h): 34.8
Decomposition efficiency of glycitin family in roasted soy flour (pH5, heat treatment of enzyme no, reaction time 1 h): 22.9
Decomposition efficiency of glycitin family in roasted soy flour (pH5, heat treatment of enzyme no, reaction time 3 h): 6.5
Decomposition efficiency of glycitin family in roasted soy flour (pH5, heat treatment of enzyme no, reaction time 6 h): not detected
Decomposition efficiency of glycitin family in roasted soy flour (pH5, heat treatment of enzyme yes, reaction time 6 h): 35.2
Decomposition efficiency of glycitin family in concentrated soybean protein (pH5.1, heat treatment of enzyme: no, reaction time 0 h): 36.1%
Decomposition efficiency of glycitin family in concentrated soybean protein (pH5.1, heat treatment of enzyme: no, reaction time 1 h): 33.2%
Decomposition efficiency of glycitin family in concentrated soybean protein (pH5.1, heat treatment of enzyme: no, reaction time 3 h): 26.0%
Decomposition efficiency of glycitin family in concentrated soybean protein (pH5.1, heat treatment of enzyme: no, reaction time 6 h): 21.0%
Decomposition efficiency of glycitin family in concentrated soybean protein (pH5.1, heat treatment of enzyme: yes, reaction time 6 h): 35.8%
Decomposition efficiency of glycitin family in defatted soybean (pH5.4, heat treatment of enzyme: no, reaction time 0 h): not detected
Decomposition efficiency of glycitin family in defatted soybean (pH5.4, heat treatment of enzyme: no, reaction time 1 h): not detected
Decomposition efficiency of glycitin family in defatted soybean (pH5.4, heat treatment of enzyme: no, reaction time 3 h): not detected
Decomposition efficiency of glycitin family in defatted soybean (pH5.4, heat treatment of enzyme: no, reaction time 6 h): not detected
Decomposition efficiency of glycitin family in defatted soybean (pH5.4, heat treatment of enzyme: yes, reaction time 6 h): not detected
Decomposition efficiency of glycitin family in soymilk (pH6.2, heat treatment of enzyme no, reaction time 0 h): not detected
Decomposition efficiency of glycitin family in soymilk (pH6.2, heat treatment of enzyme no, reaction time 1 h): not detected
Decomposition efficiency of glycitin family in soymilk (pH6.2, heat treatment of enzyme no, reaction time 3 h): not detected
Decomposition efficiency of glycitin family in soymilk (pH6.2, heat treatment of enzyme no, reaction time 6 h): not detected
Decomposition efficiency of glycitin family in soymilk (pH6.2, heat treatment of enzyme yes, reaction time 6 h): not detected
Decomposition efficiency of glycitin family in roasted soy flour (pH6.5, heat treatment of enzyme no, reaction time 0 h): 35.4
Decomposition efficiency of glycitin family in roasted soy flour (pH6.5, heat treatment of enzyme no, reaction time 1 h): 35.0
Decomposition efficiency of glycitin family in roasted soy flour (pH6.5, heat treatment of enzyme no, reaction time 3 h): 19.7
Decomposition efficiency of glycitin family in roasted soy flour (pH6.5, heat treatment of enzyme no, reaction time 6 h): 11.9
Decomposition efficiency of glycitin family in roasted soy flour (pH6.5, heat treatment of enzyme yes, reaction time 6 h): 35.4
Decomposition efficiency of glycitin family in concentrated soybean protein [1]: 36.1%
Decomposition efficiency of glycitin family in defatted soybean [1]: not detected
Decomposition efficiency of glycitin family in concentrated soybean protein [2]: 34.8%
Decomposition efficiency of glycitin family in defatted soybean [2]: not detected
Decomposition efficiency of glycitin family in concentrated soybean protein [3]: 32.4%
Decomposition efficiency of glycitin family in defatted soybean [3]: not detected
Decomposition efficiency of glycitin family in concentrated soybean protein [4]: 29.5%
Decomposition efficiency of glycitin family in defatted soybean [4]: not detected
Decomposition efficiency of glycitin family in concentrated soybean protein [5]: 35.2%
Decomposition efficiency of glycitin family in defatted soybean [5]: not detected
Decomposition efficiency of glycitin family in soymilk (pH7.2, heat treatment of enzyme no, reaction time 0 h): not detected
Decomposition efficiency of glycitin family in soymilk (pH7.2, heat treatment of enzyme no, reaction time 1 h): not detected
Decomposition efficiency of glycitin family in soymilk (pH7.2, heat treatment of enzyme no, reaction time 3 h): not detected
Decomposition efficiency of glycitin family in soymilk (pH7.2, heat treatment of enzyme no, reaction time 6 h): not detected
Decomposition efficiency of glycitin family in soymilk (pH7.2, heat treatment of enzyme yes, reaction time 6 h): not detected
Decomposition efficiency of glycitin family in defatted soybean (pH7.8, heat treatment of enzyme: no, reaction time 0 h): not detected
Decomposition efficiency of glycitin family in defatted soybean (pH7.8, heat treatment of enzyme: no, reaction time 1 h): not detected
Decomposition efficiency of glycitin family in defatted soybean (pH7.8, heat treatment of enzyme: no, reaction time 3 h): not detected
Decomposition efficiency of glycitin family in defatted soybean (pH7.8, heat treatment of enzyme: no, reaction time 6 h): not detected
Decomposition efficiency of glycitin family in defatted soybean (pH7.8, heat treatment of enzyme: yes, reaction time 6 h): not detected
Decomposition efficiency of glycitin family in roasted soy flour (pH8.5, heat treatment of enzyme no, reaction time 0 h): 31.0
Decomposition efficiency of glycitin family in roasted soy flour (pH8.5, heat treatment of enzyme no, reaction time 1 h): 32.4
Decomposition efficiency of glycitin family in roasted soy flour (pH8.5, heat treatment of enzyme no, reaction time 3 h): 30.6
Decomposition efficiency of glycitin family in roasted soy flour (pH8.5, heat treatment of enzyme no, reaction time 6 h): 30.2
Decomposition efficiency of glycitin family in roasted soy flour (pH8.5, heat treatment of enzyme yes, reaction time 6 h): 31.7
Decomposition efficiency of glycitin family in concentrated soybean protein (pH8.6, heat treatment of enzyme: no, reaction time 0 h): 33.0%
Decomposition efficiency of glycitin family in concentrated soybean protein (pH8.6, heat treatment of enzyme: no, reaction time 1 h): 32.6%
Decomposition efficiency of glycitin family in concentrated soybean protein (pH8.6, heat treatment of enzyme: no, reaction time 3 h): 32.6%
Decomposition efficiency of glycitin family in concentrated soybean protein (pH8.6, heat treatment of enzyme: no, reaction time 6 h): 32.0%
Decomposition efficiency of glycitin family in concentrated soybean protein (pH8.6, heat treatment of enzyme: yes, reaction time 6 h): 31.6%
Decomposition efficiency of glycitin family in soymilk (pH11.6, heat treatment of enzyme no, reaction time 0 h): not detected
Decomposition efficiency of glycitin family in soymilk (pH11.6, heat treatment of enzyme no, reaction time 1 h): not detected
Decomposition efficiency of glycitin family in soymilk (pH11.6, heat treatment of enzyme no, reaction time 3 h): not detected
Decomposition efficiency of glycitin family in soymilk (pH11.6, heat treatment of enzyme no, reaction time 6 h): not detected
Decomposition efficiency of glycitin family in soymilk (pH11.6, heat treatment of enzyme yes, reaction time 6 h): not detected
